Read-outs that look alike come from different tables or passages of the source.
Experiments:
Pyricularia oryzae = format: in vivo, Pyricularia oryzae on rice plants (variety Tainong 67); conditions: field, natural infection
Pyricuaria oryzae = format: in vivo, Pyricuaria oryzae on rice plants (variety Tainong 67); conditions: field, natural infection

Structure (SMILES) | Efficacy % 15 days after first application (Pyricularia oryzae; application rate 100 g ai/ha) [%] | Efficacy % 22 days after first application (Pyricuaria oryzae; application rate 100 g ai/ha) [%] | Efficacy % 22 days after first application (Pyricuaria oryzae; application rate 200 g ai/ha) [%] | Efficacy % 15 days after first application (Pyricularia oryzae; application rate 25 g ai/ha) [%] | Efficacy % 15 days after first application (Pyricularia oryzae; application rate 50 g ai/ha) [%] | Efficacy % 15 days after first application (Pyricularia oryzae; application rate 75 g ai/ha) [%] | Efficacy % 22 days after first application (Pyricuaria oryzae; application rate 25 g ai/ha) [%] | Efficacy % 22 days after first application (Pyricuaria oryzae; application rate 50 g ai/ha) [%] | Efficacy % 22 days after first application (Pyricuaria oryzae; application rate 75 g ai/ha) [%]
Cc1cccc2sc3nncn3c12 [Tricyclazol, tricyclazole] | 34.9 | 5.6 | 0.0 |  |  |  |  |  | 
Fc1ccc([C@]2(Cn3cncn3)O[C@H]2c2ccccc2Cl)cc1 (racemic) [Epoxiconazole (EPX), epoxiconazole] |  |  |  | 17.7 | 24.1 | 35.1 | 1.2 | 0.0 | 5.6
